Patent publication US20250270227A1, “CAMPTOTHECIN DERIVATIVE, AND PHARMACEUTICAL COMPOSITION AND USE THEREOF” (SIMCERE ZAIMING PHARMACEUTICAL CO., LTD., priority 2021, published 2025)
Read-outs that look alike come from different tables or passages of the source.

Assays:
Test in all cases: Test 1 of anti-proliferative activity against tumor cells (Cell-Titer Glo)
Assay type in all cases: cell-based
[1] = test system: human breast cancer cell line SKBR3
Procedure: (§1) Cell culture: HCT116 cells and SKBR3 cells were cultured in McCoy's 5a medium containing 10% fetal bovine serum+1% penicillin-streptomycin at 37° C. and 5% CO2, and OVCAR3 cells were cultured in 1640 medium containing 20% fetal bovine serum+2 μg/mL bovine insulin+1% penicillin-streptomycin at 37° C. and 5% CO2. Cells in logarithmic growth phase were suitable for the experiment.
(§2) Detection of cell proliferation activity: The inhibitory activity of the compounds on the proliferation of the three cell lines HCT116, SKBR3 and OVCAR3 was detected using Cell-Titer Glo reagent. HCT116 cells (1500 cells per well), SKBR3 cells (3000 cells per well) and OVCAR3 cells (5000 cells per well) were seeded in 96-well plates and cultured at 37° C. and 5% CO2 for 24 h. The solution of the compound to be tested (the compound was dissolved in DMSO with the concentration of the compound being 1 mM, then the compound was diluted to 3 μM with DMSO, with 3-fold dilution and a total of 9 concentrations, and 10 μL of the prepared compound solution was transferred to a 96-well plate with the final concentration of 0-300 nM) was added. The cells were placed at 37° C. and 5% CO2 for further culture. HCT116 cells were cultured for 3 days, and SKBR3 cells and OVCAR3 cells were cultured for 5 days. The cell viability was detected by adding Cell-Titer Glo reagent.
(§3) Additionally, a negative control group and a positive control group were provided as Bottom and Top, respectively. In the negative control group, the cells were not added, only the same volume of medium was added, and other operations were consistent with those in the experimental group; in the positive control group, the test compound was not added, only the same volume of DMSO was added, and other operations were consistent with those in the experimental group.
(§4) Data analysis: The % compound inhibition was calculated, and fitting was performed to obtain IC50 of the compound.
(§5) % Compound inhibition=1−100%*(Signal−Bottom)/(Top−Bottom).
(§6) Signal represents the signal value of the experimental group, Bottom represents the average signal value of the negative control group, and Top represents the average signal value of the positive control group.

[2] = test system: human ovarian cancer cell line OVCAR3
Procedure: as §1, §2, §3, §4, §5, §6

[3] = test system: Human colorectal cancer cell line HCT116
Procedure: as §1, §2, §3, §4, §5, §6

[4] = Homo sapiens, SK-BR-3, 120 h, read-out: SKBR3 Anti-proliferative activity IC50 (nM), SKBR3 cells, cultured 5 days with compound, Cell-Titer Glo
[5] = Homo sapiens, OVCAR-3, 120 h, read-out: OVCAR3 Anti-proliferative activity IC50 (nM)
[6] = Homo sapiens, HCT-116, 72 h, read-out: HCT116 Anti-proliferative activity IC50 (nM), HCT116 cells, cultured 3 days with compound, Cell-Titer Glo

Structure (SMILES)	IC50 [1, 4] [nM]	IC50 [2, 5] [nM]	IC50 [3, 6] [nM]	further results
CC[C@@]1(O)C(=O)OCc2c1cc1n(c2=O)Cc2c-1nc1cc(F)c(Cl)c(F)c1c2CNC(=O)C(O)C1CC1 (single isomer, unassigned) [Compound 23-P2]	–	–	–	IC50 ([1]; SKBR3 cells, cultured 5 days with compound, Cell-Titer Glo, read-out: SKBR3 Anti-proliferative activity IC50): 4.5 nM; IC50 ([2]; OVCAR3 cells, cultured 5 days with compound, Cell-Titer Glo, read-out: OVCAR3 Anti-proliferative activity IC50): 1.5 nM; IC50 ([3]; HCT116 cells, cultured 3 days with compound, Cell-Titer Glo, read-out: HCT116 Anti-proliferative activity IC50): 9.5 nM
CC[C@@]1(O)C(=O)OCc2c1cc1n(c2=O)Cc2c-1nc1cc(Cl)c(C)cc1c2CNC(=O)CO [Compound 6, (S)-N-((8-chloro-4-ethyl-4-hydroxy-9-methyl-3,14-dioxo-3,4, 12,14-tetrahydro-1H-pyrano[3′,4′:6,7]indolizino[1,2-b]quinolin-11-yl)methyl)-2-hydroxyacetamide]	4.8	2.1	12.6	–
CC[C@@]1(O)C(=O)OCc2c1cc1n(c2=O)Cc2c-1nc1ccc3c(c1c2CNC(=O)C(O)C1CC1)CCC3 (stereo partly drawn) [Compound 13, 2-cyclopropyl-N-(((S)-8-ethyl-8-hydroxy-9,12-dioxo-2,3,8,9, 12,14-hexahydro-1H,11H-cyclopentadieno[f]pyrano[3′,4′:6,7]indolizino [1,2-b]quinolin-15-yl)methyl)-2-hydroxyacetamide]	–	0.7	8	–
CC[C@@]1(O)C(=O)OCc2c1cc1n(c2=O)Cc2c-1nc1cc(F)c(Cl)c(F)c1c2CNC(=O)CO [Compound 21, (S)-N-((9-chloro-4-ethyl-8,10-difluoro-4-hydroxy-3,14-dioxo-3,4,12,14-tetrahydro-1H-pyrano[3′,4′:6,7]indolizino[1,2-b]quinolin-11-yl)methyl)-2-hydroxyacetamide]	4	1.7	7.1	–
CC[C@@]1(O)C(=O)OCc2c1cc1n(c2=O)Cc2c-1nc1cc(F)c(Cl)c(F)c1c2CNC(=O)C(C)(C)O [Compound 22, (S)-N-((9-chloro-4-ethyl-8,10-difluoro-4-hydroxy-3,14-dioxo-3,4,12,14-tetrahydro-1H-pyrano[3′,4′:6,7]indolizino[1,2-b]quinolin-11-yl)methyl)-2-hydroxy-2-methylpropanamide]	3.5	1.4	4	–
CC[C@@]1(O)C(=O)OCc2c1cc1n(c2=O)Cc2c-1nc1cc(F)c(Cl)c(F)c1c2CNC(=O)C(O)C1CC1 (stereo partly drawn) [Compound 23, N-(((S)-9-chloro-4-ethyl-8,10-difluoro-4-hydroxy-3,14-dioxo-3,4,12,14-tetrahydro-1H-pyrano[3′,4′:6,7]indolizino[1,2-b]quinolin-11-yl)methyl)-2-cyclopropyl-2-hydroxyacetamide]	–	3.9	–	IC50 ([1]; read-out: SKBR3 Anti-proliferative activity IC50, SKBR3 cells, cultured 5 days with compound, Cell-Titer Glo): 5.3 nM; IC50 ([3]; read-out: HCT116 Anti-proliferative activity IC50, HCT116 cells, cultured 3 days with compound, Cell-Titer Glo): 5.6 nM
CC[C@@]1(O)C(=O)OCc2c1cc1n(c2=O)Cc2c-1nc1cc(F)c(Cl)c(F)c1c2CNC(=O)C(O)C1CC1 (stereo partly drawn) [Compound 23-P1, N-(((S)-9-chloro-4-ethyl-8,10-difluoro-4-hydroxy-3,14-dioxo-3,4,12,14-tetrahydro-1H-pyrano[3′,4′:6,7]indolizino[1,2-b]quinolin-11-yl)methyl)-2-cyclopropyl-2-hydroxyacetamide]	–	–	–	IC50 ([1]; Homo sapiens, SK-BR-3, 120 h, SKBR3 cells, cultured 5 days with compound, Cell-Titer Glo, read-out: SKBR3 Anti-proliferative activity IC50): 5.8 nM; IC50 ([2]; Homo sapiens, OVCAR-3, 120 h, OVCAR3 cells, cultured 5 days with compound, Cell-Titer Glo, read-out: OVCAR3 Anti-proliferative activity IC50): 1.9 nM; IC50 ([3]; Homo sapiens, HCT-116, 72 h, HCT116 cells, cultured 3 days with compound, Cell-Titer Glo, read-out: HCT116 Anti-proliferative activity IC50): 7.9 nM
CC[C@@]1(O)C(=O)OCc2c1cc1n(c2=O)Cc2c-1nc1cc(F)c(Cl)c(F)c1c2CNC(=O)[C@@H](C)O [Compound 25, (R)-N-(((S)-9-chloro-4-ethyl-8,10-difluoro-4-hydroxy-3,14-dioxo-3,4,12,14-tetrahydro-1H-pyrano[3′,4′:6,7]indolizino[1,2-b]quinolin-11-yl)methyl)-2-hydroxypropanamide]	3.7	2	7.9	–
CC[C@@]1(O)C(=O)OCc2c1cc1n(c2=O)Cc2c-1nc1cc(F)c(Cl)c(F)c1c2CNC(=O)[C@H](C)O [Compound 26, (S)-N-(((S)-9-chloro-4-ethyl-8,10-difluoro-4-hydroxy-3,14-dioxo-3,4,12,14-tetrahydro-1H-pyrano[3′,4′:6,7]indolizino[1,2-b]quinolin-11-yl)methyl)-2-hydroxypropanamide]	4.2	1.6	9.5	–
CC[C@@]1(O)C(=O)OCc2c1cc1n(c2=O)Cc2c-1nc1cc3c(c(Cl)c1c2CNC(=O)C(O)C1CC1)OCO3 (stereo partly drawn) [Compound 30, N-(((S)-15-chloro-7-ethyl-7-hydroxy-8,11-dioxo-7,8,11,13-tetrahydro-10H-[1,3]dioxolo[4,5-g]pyrano[3′,4′:6,7]indolizino[1,2-b]quinolin-14-yl)methyl)-2-cyclopropyl-2-hydroxyacetamide]	–	0.4	4.6	–
CC[C@@]1(O)C(=O)OCc2c1cc1n(c2=O)Cc2c-1nc1cc(F)c(Cl)c(F)c1c2CNC(=O)CCO [Compound 32, (S)-N-((9-chloro-4-ethyl-8,10-difluoro-4-hydroxy-3,14-dioxo-3,4,12,14-tetrahydro-1H-pyrano[3′,4′:6,7]indolizino[1,2-b]quinolin-11-yl)methyl)-3-hydroxypropanamide]	–	1	9.8	–
CC[C@@]1(O)C(=O)OCc2c1cc1n(c2=O)Cc2c-1nc1cc(Cl)c3c(c1c2CNC(=O)CO)CCC3 [Compound 33, (S)-N-((4-chloro-8-ethyl-8-hydroxy-9,12-dioxo-2,3,8,9,12,14-hexahydro-1H,11H-cyclopentadieno[f]pyrano[3′,4′:6,7]indolizino[1,2-b]quinolin-15-yl)methyl)-2-hydroxyacetamide]	–	0.8	5.5	–
CC[C@@]1(O)C(=O)OCc2c1cc1n(c2=O)Cc2c-1nc1cc(Cl)c3c(c1c2CNC(=O)C(O)C1CC1)CCC3 (stereo partly drawn) [Compound 34, N-(((S)-4-chloro-8-ethyl-8-hydroxy-9,12-dioxo-2,3,8,9,12,14-hexahydro-1H,11H-cyclopentadieno[f]pyrano[3′,4′:6,7]indolizino[1,2-b]quinolin-15-yl)methyl)-2-cyclopropyl-2-hydroxyacetamide]	–	0.6	2.3	–
CC[C@@]1(O)C(=O)OCc2c1cc1n(c2=O)Cc2c-1nc1cc3c(c(F)c1c2CNC(=O)CO)OCO3 [Compound 38, (S)-N-((7-ethyl-15-fluoro-7-hydroxy-8,11-dioxo-7,8,11,13-tetrahydro-10H-[1,3]dioxolo[4,5-g]pyrano[3′,4′:6,7]indolizino[1,2-b]quinolin-14-yl)methyl)-2-hydroxyacetamide]	–	2.9	–	–
CC[C@@]1(O)C(=O)OCc2c1cc1n(c2=O)Cc2c-1nc1cc3c(c(F)c1c2CNC(=O)CN)OCO3 [Compound 40, (S)-2-amino-N-((7-ethyl-15-fluoro-7-hydroxy-8,11-dioxo-7,8,11,13-tetrahydro-10H-[1,3]dioxolo[4,5-g]pyrano[3′,4′:6,7]indolizino[1,2-b]quinolin-14-yl)methyl)acetamide]	–	11.3	–	–
